# Read-outs that look alike come from different tables or passages of the source.
# Tested on: Human lung adenocarcinoma cell line A549
# Assay: In vitro cytotoxicity test of camptothecin payloads (CellTiter-Glo)
# Assay type: cell-based
# Conditions: for IC50: Homo sapiens, A549, 72 h, read-out: A549 Cytotoxicity IC50 (nM)
# Description: Human lung adenocarcinoma cell line A549 was used to evaluate the cytotoxicity of small molecule fragment of the present invention. A549 cells were seeded to a 96-well plate at 2000 cells per well.
smiles,measurement,setting,value
"CC[C@@]1(O)C(=O)OCc2c1cc1n(c2=O)Cc2c-1nc1cc(F)c(C)cc1c2CN1CCCC(O)C1 (stereo partly drawn) [Example 17, (4S)-4-ethyl-8-fluoro-4-hydroxy-11-((3-hydroxypiperidin-1-yl)methyl)-9-methyl-1H-pyrano[3′,4′:6,7] indolizino[1,2-b]quinoline-3,14(4H,12H)-dione]",relative A549 cytotoxic potency in words,,most potent compound
same,IC50,,38 nM
"CC[C@@]1(O)C(=O)OCc2c1cc1n(c2=O)Cc2c-1nc1cc(F)c(C)cc1c2CN1CCC(O)CC1 [Example 16, (S)-4-ethyl-8-fluoro-4-hydroxy-11-((4-hydroxypiperidin-1-yl)methyl)-9-methyl-1H-pyrano[3′,4′:6,7] indolizino[1,2-b]quinoline-3,14(4H,12H)-dione]",IC50,,81 nM
"CC[C@@]1(O)C(=O)OCc2c1cc1n(c2=O)Cc2c-1nc1cc(F)c(C)cc1c2CN1CCC(C)(CO)C1 (stereo partly drawn) [Example 24, (4S)-4-ethyl-8-fluoro-4-hydroxy-11-((3-(hydroxymethyl)-3-methylpyrrolidin-1-yl)methyl)-9-methyl-1H-pyrano[3′,4′:6,7] indolizino[1,2-b]quinoline-3,14(4H,12H)-dione]",IC50,,43 nM
"CC[C@@]1(O)C(=O)OCc2c1cc1n(c2=O)Cc2c-1nc1cc(F)c(C)cc1c2CN1CC(C)(C)C[C@@H]1CO [Example 22, (S)-4-ethyl-8-fluoro-4-hydroxy-11-(((R)-2-(hydroxymethyl)-4,4-dimethylpyrrolidin-1-yl)methyl)-9-methyl-1H-pyrano[3′,4′:6,7] indolizino[1,2-b]quinoline-3,14(4H,12H)-dione]",IC50,,14.3 nM
"CC[C@@]1(O)C(=O)OCc2c1cc1n(c2=O)Cc2c-1nc1cc(F)c(C)cc1c2C(C)N1CCC([C@@H](C)O)CC1 (stereo partly drawn) [Example 39, (4S)-4-ethyl-8-fluoro-4-hydroxy-11-(1-(4-((R)-1-hydroxyethyl)piperidin-1-yl)ethyl)-9-methyl-1,12-dihydro-14H-pyrano[3′,4′:6,7] indolizino[1,2-b]quinoline-3,14(4H)-dione]",IC50,,128 nM
"CC[C@@]1(O)C(=O)OCc2c1cc1n(c2=O)Cc2c-1nc1cc(F)c(C)cc1c2CN1C[C@H]2CC[C@@H](C1)C2O (stereo partly drawn) [Example 33, (4S)-4-ethyl-8-fluoro-4-hydroxy-11-(((1R,5S)-8-hydroxy-3-azabicyclo[3.2.1]octan-3-yl)methyl)-9-methyl-1H-pyrano[3′,4′:6,7] indolizino[1,2-b]quinoline-3,14(4H,12H)-dione]",IC50,,12.9 nM
"CC[C@@]1(O)C(=O)OCc2c1cc1n(c2=O)Cc2c-1nc1cc(F)c(C)cc1c2CN1CCCC(CO)C1 (stereo partly drawn) [Example 12, (4S)-4-ethyl-8-fluoro-4-hydroxy-11-((3-(hydroxymethyl)piperidin-1-yl)methyl)-9-methyl-1H-pyrano[3′,4′:6,7] indolizino[1,2-b]quinoline-3,14(4H,12H)-dione]",IC50,,90 nM
same,relative A549 cytotoxic potency in words,"human, 3 days",less potent than Example 17
"CC[C@@]1(O)C(=O)OCc2c1cc1n(c2=O)Cc2c-1nc1ccc(O)cc1c2CN1CCC([C@@H](C)O)CC1 [Example 38, (S)-4-ethyl-4,9-dihydroxy-11-((4-((R)-1-hydroxyethyl)piperidin-1-yl)methyl)-1,12-dihydro-14H-pyrano[3′,4′:6,7] indolizino[1,2-b]quinoline-3,14(4H)-dione]",IC50,,1250 nM
"CC[C@@]1(O)C(=O)OCc2c1cc1n(c2=O)Cc2c-1nc1cc(F)c(C)cc1c2CN1CCCC1(C)CO (stereo partly drawn) [Example 21, (4S)-4-ethyl-8-fluoro-4-hydroxy-11-((2-(hydroxymethyl)-2-methylpyrrolidin-1-yl)methyl)-9-methyl-1H-pyrano[3′,4′:6,7] indolizino[1,2-b]quinoline-3,14(4H,12H)-dione]",IC50,,55 nM
"CC[C@@]1(O)C(=O)OCc2c1cc1n(c2=O)Cc2c-1nc1cc(F)c(C)cc1c2CN1CC2C(C1CO)C2(C)C (stereo partly drawn) [Example 23, (4S)-4-ethyl-8-fluoro-4-hydroxy-11-((2-(hydroxymethyl)-6,6-dimethyl-3-azabicyclo[3.1.0]hexan-3-yl)methyl)-9-methyl-1H-pyrano[3′,4′:6,7] indolizino[1,2-b]quinoline-3,14(4H,12H)-dione]",IC50,,49 nM
"CC[C@@]1(O)C(=O)OCc2c1cc1n(c2=O)Cc2c-1nc1cc(F)c(C)cc1c2CN1CCC(C(O)C(F)(F)F)CC1 (stereo partly drawn) [Example 29, (4S)-4-ethyl-8-fluoro-4-hydroxy-9-methyl-11-((4-(2,2,2-trifluoro-1-hydroxyethyl)piperidin-1-yl)methyl)-1H-pyrano[3′,4′:6,7] indolizino[1,2-b]quinoline-3,14(4H,12H)-dione]",IC50,,29.8 nM
"CC[C@@]1(O)C(=O)OCc2c1cc1n(c2=O)Cc2c-1nc1cc(F)c(C)cc1c2CN1CCC(C2(O)CCC2)CC1 [Example 30, (S)-4-ethyl-8-fluoro-4-hydroxy-11-((4-(1-hydroxycyclobutyl)piperidin-1-yl)methyl)-9-methyl-1H-pyrano[3′,4′:6,7] indolizino[1,2-b]quinoline-3,14(4H,12H)-dione]",IC50,,28.6 nM
"CC[C@@]1(O)C(=O)OCc2c1cc1n(c2=O)Cc2c-1nc1cc(F)c(C)cc1c2CN1CCC(C(O)C(C)C)CC1 (stereo partly drawn) [Example 28, (4S)-4-ethyl-8-fluoro-4-hydroxy-11-((4-(1-hydroxy-2-methylpropyl)piperidin-1-yl)methyl)-9-methyl-1H-pyrano[3′,4′:6,7] indolizino[1,2-b]quinoline-3,14(4H,12H)-dione]",IC50,,74.2 nM
"CC[C@@]1(O)C(=O)OCc2c1cc1n(c2=O)Cc2c-1nc1cc(F)c(C)cc1c2CN1CCC2(CCC2O)CC1 (stereo partly drawn) [Example 32, (4S)-4-ethyl-8-fluoro-4-hydroxy-11-((1-hydroxy-7-azaspiro[3.5]nonan-7-yl)methyl)-9-methyl-1H-pyrano[3′,4′:6,7] indolizino[1,2-b]quinoline-3,14(4H,12H)-dione]",IC50,,12.6 nM
"CC[C@@]1(O)C(=O)OCc2c1cc1n(c2=O)Cc2c-1nc1cc(F)c(C)cc1c2CN1CCC(O)C1 (stereo partly drawn) [Example 2, (4S)-4-ethyl-8-fluoro-4-hydroxy-11-((3-hydroxypyrrolidin-1-yl)methyl)-9-methyl-1H-pyrano[3′,4′:6,7] indolizino[1,2-b]quinoline-3,14(4H,12H)-dione]",IC50,,138 nM
"CC[C@@]1(O)C(=O)OCc2c1cc1n(c2=O)Cc2c-1nc1cc(F)c(C)cc1c2CN1CCC(CCO)CC1 [Example 27, (S)-4-ethyl-8-fluoro-4-hydroxy-11-((4-(2-hydroxyethyl)piperidin-1-yl)methyl)-9-methyl-1H-pyrano[3′,4′:6,7] indolizino[1,2-b]quinoline-3,14(4H,12H)-dione]",IC50,,16.8 nM
"CC[C@@]1(O)C(=O)OCc2c1cc1n(c2=O)Cc2c-1nc1cc(F)c(C)cc1c2CN1CCC([C@@H](C)O)CC1 [Example 15, (S)-4-ethyl-8-fluoro-4-hydroxy-11-((4-((R)-1-hydroxyethyl)piperidin-1-yl)methyl)-9-methyl-1H-pyrano[3′,4′:6,7] indolizino[1,2-b]quinoline-3,14(4H,12H)-dione]",IC50,,17.6 nM
"CC[C@@]1(O)C(=O)OCc2c1cc1n(c2=O)Cc2c-1nc1cc(F)c(C)cc1c2CN1C[C@H]2C[C@@H](C1)C2O (stereo partly drawn) [Example 47, (4S)-4-ethyl-8-fluoro-4-hydroxy-11-(((1R,5S)-6-hydroxy-3-azabicyclo[3.1.1]heptan-3-yl)methyl)-9-methyl-1,12-dihydro-14H-pyrano[3',4':6,7] indolizino[1,2-b]quinoline-3,14(4H)-dione]",IC50,,28 nM
CC[C@@]1(O)C(=O)OCc2c1cc1n(c2=O)Cc2c-1nc1cc3c(cc1c2CN1CCC2(CC1)CC(O)C2)OCCO3 [Example 44],IC50,,30 nM
"CC[C@@]1(O)C(=O)OCc2c1cc1n(c2=O)Cc2c-1nc1cc(F)c(C)cc1c2CN1CC[C@@H](O)C1=O [Example 1, (S)-4-ethyl-8-fluoro-4-hydroxy-11-(((R)-3-hydroxy-2-oxopyrrolidin-1-yl)methyl)-9-methyl-1H-pyrano[3′,4′:6,7] indolizino[1,2-b]quinoline-3,14(4H,12H)-dione]",IC50,,515 nM
same,relative A549 cytotoxic potency in words,comparison between analogs of Table 1,much less potent
"CC[C@@]1(O)C(=O)OCc2c1cc1n(c2=O)Cc2c-1nc1cc(F)c(OC)cc1c2CN1CCC([C@@H](C)O)CC1 [Example 41, (S)-4-ethyl-8-fluoro-4-hydroxy-11-((4-((R)-1-hydroxyethyl)piperidin-1-yl)methyl)-9-methoxy-1,12-dihydro-14H-pyrano[3′,4′:6,7] indolizino[1,2-b]quinoline-3,14(4H)-dione]",IC50,,31 nM
"CC[C@@]1(O)C(=O)OCc2c1cc1n(c2=O)Cc2c-1nc1cc(F)c(C)cc1c2CN1CCC2(CC1)CC(O)C2 [Example 31, (S)-4-ethyl-8-fluoro-4-hydroxy-11-((2-hydroxy-7-azaspiro[3.5]nonan-7-yl)methyl)-9-methyl-1H-pyrano[3′,4′:6,7] indolizino[1,2-b]quinoline-3,14(4H,12H)-dione]",IC50,,12.5 nM
CC[C@@]1(O)C(=O)OCc2c1cc1n(c2=O)Cc2c-1nc1cc3c(cc1c2CN1C[C@@H]2CCC[C@@H]2[C@H]1CO)OCCO3 [Example 45],IC50,,53 nM
"CC[C@@]1(O)C(=O)OCc2c1cc1n(c2=O)Cc2c-1nc1cc(F)c(C)cc1c2CN1CCC(CO)CC1 [Example 10, (S)-4-ethyl-8-fluoro-4-hydroxy-11-((4-(hydroxymethyl)piperidin-1-yl)methyl)-9-methyl-1H-pyrano[3′,4′:6,7] indolizino[1,2-b]quinoline-3,14(4H,12H)-dione]",IC50,,67 nM
same,relative A549 cytotoxic potency in words,"human, 3 days",less potent than Example 17
"CC[C@@]1(O)C(=O)OCc2c1cc1n(c2=O)Cc2c-1nc1ccc(OCC(=O)N3CCCCC3)cc1c2CN1CCC([C@@H](C)O)CC1 [Example 40, (S)-4-ethyl-4-hydroxy-11-((4-((R)-1-hydroxyethyl)piperidin-1-yl)methyl)-9-(2-oxo-2-(piperidin-1-yl)ethoxy)-1,12-dihydro-14H-pyrano[3′,4′:6,7] indolizino[1,2-b]quinoline-3,14(4H)-dione]",IC50,,1290 nM
"CC[C@@]1(O)C(=O)OCc2c1cc1n(c2=O)Cc2c-1nc1cc(F)c(C)cc1c2CN1CCC(CO)C1 (stereo partly drawn) [Example 8, (4S)-4-ethyl-8-fluoro-4-hydroxy-11-((3-(hydroxymethyl)pyrrolidin-1-yl)methyl)-9-methyl-1H-pyrano[3′,4′:6,7] indolizino[1,2-b]quinoline-3,14(4H,12H)-dione]",IC50,,82 nM

# From patent US20250367308A1, “LIGAND-DRUG CONJUGATE OF CAMPTOTHECIN ANALOGS, INTERMEDIATES, PREPARATION METHOD THEREFOR, PHARMACEUTICAL COMPOSITION AND APPLICATION THEREOF” (SHANGHAI MICURX PHARMACEUTICAL CO.,LTD., priority 2022, published 2025)
